Results published in US20100267561A1, “HERBICIDAL PYRIDAZINONE DERIVATIVES” (priority 2007, published 2010).

How the values were obtained:
Experiment in all cases: Test B pre-/postemergence plant response
Format in all cases: in vivo
[1] = tested on: blackgrass (Alopecurus myosuroides)
How it was run: (§1)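 Seeds were sown and sprayed preemergence, while plants at 2 to 18 cm (1- to 4-leaf stage) got postemergence sprays. Compounds were formulated in a non-phytotoxic solvent mixture with surfactant. After 13 to 15 days in a greenhouse, injury was rated visually against untreated controls, 0 (no effect) to 100 (complete control).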

[2] = tested on: common (oilseed) sunflower (Helianthus annuus); settings: Preemergence
How it was run: as §1

[3] = tested on: common ragweed (Ambrosia elation)
How it was run: as §1

[4] = tested on: eastern black (E.B.) nightshade (Solanum ptycanthum); settings: Preemergence
How it was run: as §1

[5] = tested on: goosegrass (Eleusine indica)
How it was run: as §1

[6] = tested on: green foxtail (Setaria viridis)
How it was run: as §1

kochia (Kochia scoparia) = tested on: kochia (Kochia scoparia)
How it was run: as §1

[7] = tested on: lambsquarters (Chenopodium album)
How it was run: as §1

[8] = tested on: large crabgrass (Digitaria sanguinalis)
How it was run: as §1

[9] = tested on: morningglory (Ipomoea coccinea)
How it was run: as §1

soybean (Glycine max) = tested on: soybean (Glycine max)
How it was run: as §1

[10] = tested on: surinam grass (Brachiaria decumbens)
How it was run: as §1

[11] = tested on: wheat (Triticum aestivum)
How it was run: as §1

wild oat (Avena fatua) = tested on: wild oat (Avena fatua)
How it was run: as §1

[12] = 8 g ai/ha, postemergence, 0-100 scale
[13] = 16 g ai/ha, postemergence, 0-100 scale
[14] = Postemergence, 31 g ai/ha, scale 0 to 100
[15] = Postemergence, 62 g ai/ha, scale 0 to 100, 0 no effect, 100 complete control
[16] = Preemergence, 8 g ai/ha, scale 0 to 100 (0 no effect, 100 complete control)
[17] = Preemergence, 31 g ai/ha, scale 0 to 100 (0 no effect, 100 complete control)
[18] = Preemergence, 62 g ai/ha, 0 to 100 scale, 0 no effect, 100 complete control
[19] = Preemergence, 16 g ai/ha, scale 0 to 100
[20] = 8 g ai/ha, scale 0 to 100 (0 no effect, 100 complete control)
[21] = 31 g ai/ha, scale 0 to 100 (0 no effect, 100 complete control)
[22] = 62 g ai/ha, 0 to 100 scale, 0 no effect, 100 complete control

CCc1c(C)c(-c2ccc(Br)cc2)nn1-c1c(O)cnn(C)c1=O [Compound 83]
Blackgrass plant response rating [1, 12]: 70 | Blackgrass plant response rating [1, 13]: 95 | Plant response rating, Blackgrass [1, 14]: 95 | Plant response rating, Blackgrass [1, 15]: 100 | Blackgrass plant response rating [1, 16]: 0 | Plant response rating, Blackgrass [1, 17]: 80 | Plant response rating, Blackgrass [1, 18]: 98 | Blackgrass plant response rating [1, 19]: 30 | Sunflower plant response rating [2, 20]: 0 | Plant response rating, Sunflower [2, 21]: 0 | Plant response rating, Sunflower [2, 22]: 0 | Sunflower plant response rating ([2]; 16 g ai/ha, scale 0 to 100): 0 | Ragweed plant response rating [3, 12]: 0 | Ragweed plant response rating [3, 13]: 0 | Plant response rating, Ragweed [3, 14]: 0 | Plant response rating, Ragweed [3, 15]: 0 | Ragweed plant response rating [3, 16]: 0 | Plant response rating, Ragweed [3, 17]: 0 | Plant response rating, Ragweed [3, 18]: 0 | Ragweed plant response rating [3, 19]: 0 | Nightshade, E. B. plant response rating [4, 20]: 0 | Plant response rating, Nightshade, E. B. [4, 21]: 0 | Plant response rating, Nightshade, E. B. [4, 22]: 0 | Nightshade, E. B. plant response rating ([4]; 16 g ai/ha, scale 0 to 100): 0 | Goosegrass plant response rating [5, 12]: 0 | Goosegrass plant response rating [5, 13]: 45 | Plant response rating, Goosegrass [5, 14]: 55 | Plant response rating, Goosegrass [5, 15]: 60 | Goosegrass plant response rating [5, 16]: 55 | Plant response rating, Goosegrass [5, 17]: 95 | Plant response rating, Goosegrass [5, 18]: 100 | Goosegrass plant response rating [5, 19]: 80 | Foxtail, Green plant response rating [6, 12]: 60 | Foxtail, Green plant response rating [6, 13]: 65 | Plant response rating, Foxtail, Green [6, 14]: 98 | Plant response rating, Foxtail, Green [6, 15]: 100 | Foxtail, Green plant response rating [6, 16]: 40 | Plant response rating, Foxtail, Green [6, 17]: 80 | Plant response rating, Foxtail, Green [6, 18]: 100 | Foxtail, Green plant response rating [6, 19]: 70 | Kochia plant response rating (kochia (Kochia scoparia); [12]): 0 | Kochia plant response rating (kochia (Kochia scoparia); [13]): 0 | Plant response rating, Kochia (kochia (Kochia scoparia); [14]): 0 | Plant response rating, Kochia (kochia (Kochia scoparia); [15]): 0 | Kochia plant response rating (kochia (Kochia scoparia); [16]): 50 | Plant response rating, Kochia (kochia (Kochia scoparia); [17]): 100 | Plant response rating, Kochia (kochia (Kochia scoparia); [18]): 100 | Kochia plant response rating (kochia (Kochia scoparia); [19]): 100 | Lambsquarters plant response rating [7, 12]: 0 | Lambsquarters plant response rating [7, 13]: 0 | Plant response rating, Lambsquarters [7, 14]: 0 | Plant response rating, Lambsquarters [7, 15]: 0 | Lambsquarters plant response rating [7, 16]: 100 | Plant response rating, Lambsquarters [7, 17]: 100 | Plant response rating, Lambsquarters [7, 18]: 100 | Lambsquarters plant response rating [7, 19]: 100 | Crabgrass, Large plant response rating [8, 12]: 80 | Crabgrass, Large plant response rating [8, 13]: 95 | Plant response rating, Crabgrass, Large [8, 14]: 100 | Plant response rating, Crabgrass, Large [8, 15]: 100 | Crabgrass, Large plant response rating [8, 16]: 0 | Plant response rating, Crabgrass, Large [8, 17]: 85 | Plant response rating, Crabgrass, Large [8, 18]: 100 | Crabgrass, Large plant response rating [8, 19]: 35 | Morningglory plant response rating [9, 12]: 0 | Morningglory plant response rating [9, 13]: 0 | Plant response rating, Morningglory [9, 14]: 0 | Plant response rating, Morningglory [9, 15]: 0 | Morningglory plant response rating [9, 16]: 0 | Plant response rating, Morningglory [9, 17]: 0 | Plant response rating, Morningglory [9, 18]: 0 | Morningglory plant response rating [9, 19]: 0 | Soybean plant response rating (soybean (Glycine max); [12]): 0 | Soybean plant response rating (soybean (Glycine max); [13]): 0 | Plant response rating, Soybean (soybean (Glycine max); [14]): 0 | Plant response rating, Soybean (soybean (Glycine max); [15]): 0 | Soybean plant response rating (soybean (Glycine max); [16]): 0 | Plant response rating, Soybean (soybean (Glycine max); [17]): 0 | Plant response rating, Soybean (soybean (Glycine max); [18]): 0 | Soybean plant response rating (soybean (Glycine max); [19]): 0 | Surinam Grass plant response rating [10, 12]: 85 | Surinam Grass plant response rating [10, 13]: 100 | Plant response rating, Surinam Grass [10, 14]: 100 | Plant response rating, Surinam Grass [10, 15]: 100 | Surinam Grass plant response rating [10, 16]: 55 | Plant response rating, Surinam Grass [10, 17]: 98 | Plant response rating, Surinam Grass [10, 18]: 100 | Surinam Grass plant response rating [10, 19]: 90 | Wheat plant response rating [11, 12]: 40 | Wheat plant response rating [11, 13]: 55 | Plant response rating, Wheat [11, 14]: 90 | Plant response rating, Wheat [11, 15]: 95 | Wheat plant response rating [11, 16]: 0 | Plant response rating, Wheat [11, 17]: 0 | Plant response rating, Wheat [11, 18]: 20 | Wheat plant response rating [11, 19]: 0 | Oat, Wild plant response rating (wild oat (Avena fatua); [12]): 98 | Oat, Wild plant response rating (wild oat (Avena fatua); [13]): 100 | Plant response rating, Oat, Wild (wild oat (Avena fatua); [14]): 100 | Plant response rating, Oat, Wild (wild oat (Avena fatua); [15]): 100 | Oat, Wild plant response rating (wild oat (Avena fatua); [16]): 0 | Plant response rating, Oat, Wild (wild oat (Avena fatua); [17]): 80 | Plant response rating, Oat, Wild (wild oat (Avena fatua); [18]): 85 | Oat, Wild plant response rating (wild oat (Avena fatua); [19]): 30
